Measured values: patent US5663148A, “Anaphylatoxin receptor ligands containing lipophilic residues” (Abbott Laboratories, priority 1994, dated 1997)

Biological target: T1, C5a receptor (Homo sapiens, UniProt P21730)
T1 construct: from tissue; host or cells: polymorphonuclear leukocyte (PMNL) membrane fragments
T1 sequence (P21730 1-350): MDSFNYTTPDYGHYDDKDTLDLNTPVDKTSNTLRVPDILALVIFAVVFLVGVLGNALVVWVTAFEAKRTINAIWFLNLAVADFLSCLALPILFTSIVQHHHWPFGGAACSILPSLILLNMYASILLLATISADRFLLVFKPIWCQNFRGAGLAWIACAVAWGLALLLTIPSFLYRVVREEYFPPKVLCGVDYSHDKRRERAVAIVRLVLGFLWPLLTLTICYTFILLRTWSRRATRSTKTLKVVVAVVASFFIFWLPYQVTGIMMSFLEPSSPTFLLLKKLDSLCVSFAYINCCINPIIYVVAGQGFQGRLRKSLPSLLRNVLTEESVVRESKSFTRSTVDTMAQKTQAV
Test: Anaphylatoxin (C5a) receptor binding Ki determination, 125I-C5a on PMNL membrane fragments
Settings: read-out: Ki (In vitro C5a Receptor Binding Potency)
Method: The membrane-bound radiolabeled C5a was separated from the free radiolabeled C5a by filtration, and the recovered gamma radioactivity was measured. […] Free and membrane-bound ligand were separated by filtration.

Structure (SMILES) | Ki [µM]
CC(C)C[C@H](NC(=O)[C@@H]1CCCN1C(=O)[C@H](CC1CCCCC1)NC(=O)CCCCCN)C(=O)NC(CCCc1ccccc1)C(=O)N[C@@H](CCCNC(=N)N)C(=O)O (mixture of isomers) [Example 11, N-(6-Aminohexanoyl)-{(2S)-2Amino-3-cyclohexylpropanoyl}-Prolyl-Leucyl-{(R/S)-2-Amino-5-phenylpentanoyl}-Arginyl-OH] | 3.6
CC(C)C[C@@H](C(=O)NC(CCCc1ccccc1)C(=O)N[C@@H](CCCNC(=N)N)C(=O)O)N(C)C(=O)CNC(=O)[C@H](CC1CCCCC1)NC(=O)CCCCCCN (mixture of isomers) [Example 27, N-(7-Aminoheptanoyl)-{(2S)-2-Amino-3-cyclohexylpropanoyl}-Glycyl-Leucyl(N-methyl)-{(R/S)-2-Amino-5-phenylpentanoyl}-Arginyl-OH] | 0.45
CC(C)C[C@H](NC(=O)CNC(=O)[C@H](CC1CCCCC1)NC(=O)CCCCCCN)C(=O)N(C)C(CCCc1ccccc1)C(=O)N[C@@H](CCCNC(=N)N)C(=O)O (mixture of isomers) [Example 28] | 1.72
CC(C)C[C@H](NC(=O)CCCc1c[nH]c2ccccc12)C(=O)NC(CCCc1ccccc1)C(=O)N[C@@H](CCCNC(=N)N)C(=O)O (mixture of isomers) [Example 30, N-(Indole-3-butyryl)-Leucyl-{(R/S)-2-Amino-5-phenylpentanoyl}-Arginyl-OH] | 7.1
N=C(N)NCCC[C@H](NC(=O)C(CCCc1ccccc1)NC(=O)[C@@H](Cc1ccccc1)NC(=O)CNC(=O)[C@H](CC1CCCCC1)NC(=O)CCCCCN)C(=O)O (mixture of isomers) [Example 58, N-(6-Aminohexanoyl)-{(2S)-2-Amino-3-cyclohexylpropanoyl}-Glycyl-DPhenylalanyl-{(R/S)-2-Amino-5-phenylpentanoyl}-Arginyl-OH] | 6.5
C[C@H](NC(=O)CNC(=O)[C@@H](N)CC1CCCCC1)C(=O)NC(CCCc1ccccc1)C(=O)N[C@@H](CCCNC(=N)N)C(=O)O (mixture of isomers) [Example 59, H-{(2S)-2-Amino-3-cyclohexylpropanoyl}-Glycyl-Alanyl-{(±)-2-Amino-5-phenylpentanoyl}-Arginyl-OH] | 67
CC(C)C[C@H](NC(=O)[C@@H](CCCCN)NC(=O)[C@@H](N)CC1CCCCC1)C(=O)NC(CCCc1ccccc1)C(=O)N[C@@H](CCCNC(=N)N)C(=O)O (mixture of isomers) [Example 98, H-{(2S)-2-Amino-3-cyclohexylpropanoyl}-DLysyl-Leucyl-{(R/S)-2-Amino-5-phenylpentanoyl}-Arginyl-OH] | 44.7
CC(C)C[C@H](NC(=O)CNC(=O)[C@H](CC1CCCCC1)NC(=O)CN(C)C(=O)CCCN)C(=O)NC(CCCc1ccccc1)C(=O)N[C@@H](CCCNC(=N)N)C(=O)O (mixture of isomers) [Example 113, N-(gamma-Aminobutyryl)-Sarcrosinyl-{(2S)-2-Amino-3-cyclohexyl-propanoyl}-Glycyl-Leucyl-{(R/S)-2-Amino-5-phenylpentanoyl}-Arginyl-OH] | 0.87
CC(C)C[C@H](NC(=O)[C@H](C)NC(=O)[C@H](CC1CCCCC1)NC(=O)[C@@H]1CCCN1C(=O)[C@H](C)NC(=O)[C@@H](N)Cc1ccccc1)C(=O)NC(CCCc1ccccc1)C(=O)N[C@@H](CCCNC(=N)N)C(=O)O (mixture of isomers) [Example 143, H-Phenylalanyl-Alanyl-Prolyl-{(2S)-2-Amino-3-cyclohexylpropanoyl}-Alanyl-Leucyl-{(±)-2-Amino-5-phenylpentanoyl}-Arginyl-OH] | 0.054
CC(C)C[C@H](NC(=O)CNC(=O)[C@H](CC1CCCCC1)NC(=O)NCc1ccc(CN)cc1)C(=O)NC(CCCc1ccccc1)C(=O)N[C@@H](CCCNC(=N)N)C(=O)O (mixture of isomers) [Example 145, N-[N-(4-Aminomethylbenzyl)aminocarbonyl]-{(2S)-2-Amino-3-cyclohexylpropanoyl}-Glycyl-Leucyl-{(R/S)-2-Amino-5-phenylpentanoyl}-Arginyl-OH] | 7
CC(C)C[C@H](NC(=O)[C@H](C)NC(=O)[C@H](CC1CCCCC1)NC(=O)CNC(=O)CCCCCN)C(=O)NC(CCCc1ccccc1)C(=O)N[C@@H](CCCNC(=N)N)C(=O)O (single isomer, unassigned) [Example 32] | 10
CC(C)C[C@H](NC(=O)[C@H](C)NC(=O)[C@H](CC1CCCCC1)NC(=O)CNC(=O)CCCCCN)C(=O)NC(CCCc1ccccc1)C(=O)N[C@@H](CCCNC(=N)N)C(=O)O (single isomer, unassigned) [Example 33] | 0.68
CC(C)C[C@H](NC(=O)CNC(=O)[C@@H](CC1CCCCC1)NC(=O)CCCCCN)C(=O)NC(CCCc1ccccc1)C(=O)N[C@@H](CCCNC(=N)N)C(=O)O (single isomer, unassigned) [Example 34] | 21.6
CC(C)C[C@H](NC(=O)CNC(=O)[C@@H](CC1CCCCC1)NC(=O)CCCCCN)C(=O)NC(CCCc1ccccc1)C(=O)N[C@@H](CCCNC(=N)N)C(=O)O (single isomer, unassigned) [Example 35] | 1.27
CC(C)C[C@H](NC(=O)CNC(=O)[C@H](CC1CCCCC1)N(C)C(=O)CCCCN)C(=O)NC(CCCc1ccccc1)C(=O)N[C@@H](CCCNC(=N)N)C(=O)O (single isomer, unassigned) [Example 36] | 9.7
CC(C)C[C@H](NC(=O)CNC(=O)[C@H](CC1CCCCC1)N(C)C(=O)CCCCN)C(=O)NC(CCCc1ccccc1)C(=O)N[C@@H](CCCNC(=N)N)C(=O)O (single isomer, unassigned) [Example 37] | 3.2
CSCC[C@H](NC(=O)[C@H](CC(=O)O)NC(=O)[C@@H](N)CCCCN)C(=O)N[C@@H](CCC(N)=O)C(=O)N[C@@H](CC(C)C)C(=O)NC(CCCc1ccccc1)C(=O)N[C@@H](CCCNC(=N)N)C(=O)O (single isomer, unassigned) [Example 39, H-Lysyl-Aspartyl-Methionyl-Glutaminyl-Leucyl-{(R/S)-2-Amino-5-phenylpentanoyl}-Arginyl-OH] | 71
CSCC[C@H](NC(=O)[C@H](CC(=O)O)NC(=O)[C@@H](N)CCCCN)C(=O)N[C@@H](CCC(N)=O)C(=O)N[C@@H](CC(C)C)C(=O)NC(CCCc1ccccc1)C(=O)N[C@@H](CCCNC(=N)N)C(=O)O (single isomer, unassigned) [Example 40, H-Lysyl-Aspartyl-Methionyl-Glutaminyl-Leucyl-{(R/S)-2-Amino-5-phenylpentanoyl}-Arginyl-OH] | 1.1
CC(C)C[C@H](NC(=O)CNC(=O)[C@H](CC1CCCCC1)NC(=O)[C@@H](N)CCCCN)C(=O)NC(CCCc1ccccc1)C(=O)N[C@@H](CCCNC(=N)N)C(=O)O (single isomer, unassigned) [Example 41, H-Lysyl-{(2S)-2-Amino-3-cyclohexylpropanoyl}-Glycyl-Leucyl-{(R/S)-2-Amino-5-phenylpentanoyl}-Arginyl-OH] | 25.4
CC(C)C[C@H](NC(=O)CNC(=O)[C@H](CC1CCCCC1)NC(=O)[C@@H](N)CCCCN)C(=O)NC(CCCc1ccccc1)C(=O)N[C@@H](CCCNC(=N)N)C(=O)O (single isomer, unassigned) [Example 42, H-Lysyl-{(2S)-2-Amino-3-cyclohexylpropanoyl}-Glycyl-Leucyl-{(R/S)-2-Amino-5-phenylpentanoyl}-Arginyl-OH] | 0.45
CC(=O)N[C@@H](CC1CCCCC1)C(=O)NCC(=O)N[C@@H](CC(C)C)C(=O)NC(CCCc1ccccc1)C(=O)N[C@@H](CCCNC(=N)N)C(=O)O (single isomer, unassigned) [Example 45] | 7.58
CC(=O)N[C@@H](CC1CCCCC1)C(=O)NCC(=O)N[C@@H](CC(C)C)C(=O)NC(CCCc1ccccc1)C(=O)N[C@@H](CCCNC(=N)N)C(=O)O (single isomer, unassigned) [Example 46, N-Acetyl-{(2S)-2-Amino-3-cyclohexylpropanoyl}-Glycyl-Leucyl-{(R/S)-2-Amino-5-phenylpentanoyl}-Arginyl-OH] | 22
CC(C)C[C@H](NC(=O)[C@H](C)NC(=O)[C@H](CC1CCCCC1)NC(=O)[C@@H]1CCCN1C(=O)[C@H](CCCCN)NC(=O)CN)C(=O)NC(CCCc1ccccc1)C(=O)N[C@@H](CCCNC(=N)N)C(=O)O (single isomer, unassigned) [Example 52] | 10.3
CC(C)C[C@H](NC(=O)[C@H](C)NC(=O)[C@H](CC1CCCCC1)NC(=O)[C@@H]1CCCN1C(=O)[C@H](CCCCN)NC(=O)CN)C(=O)NC(CCCc1ccccc1)C(=O)N[C@@H](CCCNC(=N)N)C(=O)O (single isomer, unassigned) [Example 53, H-Glycyl-Lysyl-Prolyl-{(2S)-2-Amino-3-cyclohexylpropanoyl}-Alanyl-Leucyl-{(R/S)-2-Amino-5-phenylpentanoyl}-Arginyl-OH] | 0.1
CC(C)C[C@H](NC(=O)CNC(=O)[C@H](CC1CCCCC1)NC(=O)[C@H](N)CCCCN)C(=O)NC(CCCc1ccccc1)C(=O)N[C@@H](CCCNC(=N)N)C(=O)O (single isomer, unassigned) [Example 56] | 26.8
CC(C)C[C@H](NC(=O)CNC(=O)[C@H](CC1CCCCC1)NC(=O)[C@H](N)CCCCN)C(=O)NC(CCCc1ccccc1)C(=O)N[C@@H](CCCNC(=N)N)C(=O)O (single isomer, unassigned) [Example 57] | 1.93
CC(C)C[C@H](NC(=O)CN(C)C(=O)[C@H](CC1CCCCC1)NC(=O)CCCCCCN)C(=O)NC(CCCc1ccccc1)C(=O)N[C@@H](CCCNC(=N)N)C(=O)O (single isomer, unassigned) [Example 60] | 19
CC(C)C[C@H](NC(=O)CN(C)C(=O)[C@H](CC1CCCCC1)NC(=O)CCCCCCN)C(=O)NC(CCCc1ccccc1)C(=O)N[C@@H](CCCNC(=N)N)C(=O)O (single isomer, unassigned) [Example 61] | 3.2
